Results taken from patent US7638508B2, “Glucocorticosteroid compound having anti-inflammatory activity” (Glaxo Group Limited, priority 2003, dated 2009).

What was measured:
Format in all cases: cell-based
Progesterone Receptor = biological target: T1, Progesterone Receptor (Homo sapiens, UniProt P06401); assay: Assay for Progesterone Receptor Activity: alkaline phosphatase upregulation in T47D cells; conditions: 24 hours at 37° C.
T1 construct: The human breast cancer cell line T47D has been reported to upregulate an endogenous alkaline phosphatase in response to progestins; endogenous in cells; host or cells: T47D cells
T1 sequence (P06401 1-933): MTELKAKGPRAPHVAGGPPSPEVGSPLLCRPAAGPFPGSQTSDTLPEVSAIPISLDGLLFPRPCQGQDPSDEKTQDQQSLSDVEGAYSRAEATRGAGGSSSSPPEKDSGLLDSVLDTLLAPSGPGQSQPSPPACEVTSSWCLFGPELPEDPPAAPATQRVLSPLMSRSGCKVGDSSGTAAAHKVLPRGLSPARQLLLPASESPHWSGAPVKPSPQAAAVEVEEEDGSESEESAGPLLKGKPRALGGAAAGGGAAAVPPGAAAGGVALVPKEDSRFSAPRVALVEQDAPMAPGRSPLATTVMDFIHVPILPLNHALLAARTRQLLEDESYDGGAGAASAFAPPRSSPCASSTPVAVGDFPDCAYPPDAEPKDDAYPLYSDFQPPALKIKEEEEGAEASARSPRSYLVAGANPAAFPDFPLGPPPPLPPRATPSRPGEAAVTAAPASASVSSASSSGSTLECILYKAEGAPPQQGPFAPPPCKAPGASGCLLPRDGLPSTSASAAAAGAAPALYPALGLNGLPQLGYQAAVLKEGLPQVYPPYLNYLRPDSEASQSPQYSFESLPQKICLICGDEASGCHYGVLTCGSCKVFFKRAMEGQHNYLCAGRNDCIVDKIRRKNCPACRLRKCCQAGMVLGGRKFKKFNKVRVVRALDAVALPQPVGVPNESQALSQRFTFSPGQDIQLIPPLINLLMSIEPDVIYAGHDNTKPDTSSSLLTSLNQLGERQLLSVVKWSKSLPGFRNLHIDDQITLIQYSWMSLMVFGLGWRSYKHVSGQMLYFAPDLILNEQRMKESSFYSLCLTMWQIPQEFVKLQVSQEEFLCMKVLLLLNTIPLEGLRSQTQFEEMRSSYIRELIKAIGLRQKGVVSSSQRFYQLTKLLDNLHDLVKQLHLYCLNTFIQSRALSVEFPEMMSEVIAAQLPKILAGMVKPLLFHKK
Experimental: Assay for Progesterone Receptor Activity
The human breast cancer cell line T47D has been reported to upregulate an endogenous alkaline phosphatase in response to progestins (Di Lorenzo et al., Cancer Research (1991) 51, 4470-4475. T47D cells were seeded into 96 well plates at a density of 1×10^5 cells per well and grown overnight at 37° C. Steroids were dissolved in DMSO, added to the cells (final DMSO concentration 0.7%), and incubated for 24 hours at 37° C. The cells were then washed with PBS and lysed with RIPA buffer (1% IGEPAL, 0.5% Na deoxycholate, 0.1% SDS in phosphate buffered saline). Alkaline phosphatase activity was measured spectrophotometrically (405 nm) using p-nitrophenylphosphate (1.5 mg/ml) as a substrate dissolved in 1 M diethanolamine, 0.28M NaCl, 0.5 mM MgCl2. Dose response curves were constructed from which EC50 values were estimated.

glucocorticoid receptor [1] = biological target: T2, glucocorticoid receptor (Homo sapiens, UniProt P04150); assay: MMTV-LTR renilla luciferase reporter assay in A549 cells (direct transactivation of gene expression); conditions: 6 hour at 37° C., read-out: maximal response relative to Dexamethasone (100%)
T2 sequence (P04150 1-777): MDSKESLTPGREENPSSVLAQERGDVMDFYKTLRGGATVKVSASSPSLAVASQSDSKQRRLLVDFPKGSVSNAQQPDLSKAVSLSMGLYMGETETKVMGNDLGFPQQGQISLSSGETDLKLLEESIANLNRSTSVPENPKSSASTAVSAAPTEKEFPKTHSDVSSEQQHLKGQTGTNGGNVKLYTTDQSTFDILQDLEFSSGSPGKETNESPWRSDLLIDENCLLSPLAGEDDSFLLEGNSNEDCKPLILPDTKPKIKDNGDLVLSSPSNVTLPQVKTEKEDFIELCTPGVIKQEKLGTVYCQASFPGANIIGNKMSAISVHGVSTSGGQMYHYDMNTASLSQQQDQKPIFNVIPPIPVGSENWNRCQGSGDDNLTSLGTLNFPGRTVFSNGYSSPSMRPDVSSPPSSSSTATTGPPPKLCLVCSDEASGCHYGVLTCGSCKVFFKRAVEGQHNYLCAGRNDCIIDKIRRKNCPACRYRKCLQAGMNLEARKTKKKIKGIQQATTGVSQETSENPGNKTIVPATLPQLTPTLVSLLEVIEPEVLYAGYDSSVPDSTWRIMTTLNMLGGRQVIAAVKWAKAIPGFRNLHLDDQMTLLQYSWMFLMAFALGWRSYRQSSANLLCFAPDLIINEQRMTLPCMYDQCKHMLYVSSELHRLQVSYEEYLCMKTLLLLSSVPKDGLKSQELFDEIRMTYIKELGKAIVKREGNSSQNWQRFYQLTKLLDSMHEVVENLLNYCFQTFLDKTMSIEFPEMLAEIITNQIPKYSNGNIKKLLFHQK
Experimental: (§1) Pharmacological activity may be assessed in functional in vitro assays of glucocorticoid agonist activity.
The functional assay based on that described by R. J. H. Austin et al., Eur Resp J. (2002), 20, 1386-1392 measures the ability of compounds to directly transactivate gene expression. A549 cells stably transfected with a reporter gene containing the glucocorticoid responsive region of the mouse mammary tumour virus long terminal repeat (MMTV-LTR) coupled to renilla luciferase were treated with test compounds at appropriate doses for 6 hour at 37° C. The amount of luciferase activity present within the cells is then determined by measuring the light emitted following incubation with a suitable substrate.

glucocorticoid receptor [2] = biological target: T2, glucocorticoid receptor; assay: NF-κB/ELAM promoter sPAP reporter assay in A549 cells, TNF stimulated (transrepressive activity of a glucocorticoid agonist); set-up: A549 cells stably transfected with a reporter gene containing the NF-κB responsive elements; endogenous in cells; host or cells: A549 cells; conditions: compound 1 hour at 37° C., then TNF 10 ng/ml for 16 hours, read-out: EC50 (transrepression, NF-κB sPAP reporter)
Experimental: as §1
The functional assay based on that described by K. P. Ray et al., Biochem J. (1997), 328, 707-715 provides a measure of transrepressive activity of a glucocorticoid agonist. A549 cells stably transfected with a reporter gene containing the NF-κB responsive elements from the ELAM gene promoter coupled to sPAP (secreted alkaline phosphatase) are treated with test compounds at appropriate doses for 1 hour at 37° C. The cells are then stimulated with tumour necrosis factor (TNF, 10 ng/ml) for 16 hours, at which time the amount of alkaline phosphatase produced is measured by a standard colourimetric assay. Dose response curves are constructed from which EC50 values may be estimated.

| Compound | EC50 (Progesterone Receptor) | Emax (glucocorticoid receptor [1]) | EC50 (glucocorticoid receptor [2]) |
| --- | --- | --- | --- |
| C[C@@H]1C[C@H]2[C@@H]3C[C@H](F)C4=CC(=O)C=C[C@]4(C)[C@@]3(F)[C@@H](O)C[C@]2(C)[C@@]1(OC(=O)C1CCCCC1)C(=O)OCC#N [Example 5, 17α-(Cyclohexylcarbonyl)oxy-6α,9α-difluoro-11β-hydroxy-16α-methyl-3-oxo-androsta-1,4-diene-17β-carboxylic Acid cyanomethyl Ester] | > 100 nM | < 35% | – |
| C[C@@H]1C[C@H]2[C@@H]3C[C@H](F)C4=CC(=O)C=C[C@]4(C)[C@@]3(F)[C@@H](O)C[C@]2(C)[C@@]1(OC(=O)c1ccc(C#N)cc1)C(=O)OCC#N [Example 8, 17α-(4-Cyanobenzoyl)oxy-6α,9α-difluoro-11β-hydroxy-16α-methyl-3-oxo-androsta-1,4-diene-17β-carboxylic Acid Cyanomethyl Ester] | > 100 nM | < 35% | ≤ 0.1 nM |
| CC(C)c1nc(C(=O)O[C@]2(C(=O)OCC#N)[C@H](C)C[C@H]3[C@@H]4C[C@H](F)C5=CC(=O)C=C[C@]5(C)[C@@]4(F)[C@@H](O)C[C@@]32C)cs1 [Example 11, 6α,9α-Difluoro-11β-hydroxy-17α-(2-isopropyl-1,3-thiazole-4-carbonyl)oxy-16α-methyl-3-oxo-androsta-1,4-diene-17β-carboxylic Acid Cyanomethyl Ester] | > 100 nM | < 35% | – |
| CSc1ccc(C(=O)O[C@]2(C(=O)OCC#N)[C@H](C)C[C@H]3[C@@H]4C[C@H](F)C5=CC(=O)C=C[C@]5(C)[C@@]4(F)[C@@H](O)C[C@@]32C)s1 [Example 15, 6α,9α-Difluoro-11β-hydroxy-16α-methyl-17α-(5-methylthio-thiophene-2-carbonyl)oxy-3-oxo-androsta-1,4-diene-17β-carboxylic Acid Cyanomethyl Ester] | – | < 35% | ≤ 0.1 nM |
| C[C@@H]1C[C@H]2[C@@H]3C[C@H](F)C4=CC(=O)CC[C@]4(C)[C@@]3(F)[C@@H](O)C[C@]2(C)[C@@]1(OC(=O)C1C(C)(C)C1(C)C)C(=O)OCC#N [Example 18, 6α,9α-Difluoro-11β-hydroxy-16α-methyl-3-oxo-17α-(2,2,3,3-tetramethycyclopropylcarbonyl)oxy-androst-4-ene-17 b-carboxylic Acid Cyanomethyl Ester] | > 100 nM | < 35% | – |
| C[C@@H]1C[C@H]2[C@@H]3C[C@H](F)C4=CC(=O)C=C[C@]4(C)[C@@]3(F)[C@@H](O)C[C@]2(C)[C@@]1(OC(=O)C1C(C)(C)C1(Cl)Cl)C(=O)OCC#N (stereo partly drawn) [Example 20, 17α-(2,2-Dichloro-3,3-dimethylclopropylcarbonyl)oxy-6α,9α-difluoro-11β-hydroxy-16α-methyl-3-oxo-androsta-1,4-diene-17β-carboxylic Acid Cyanomethyl Ester] | > 100 nM | < 35% | ≤ 0.1 nM |
| C[C@@H]1C[C@H]2[C@@H]3C[C@H](F)C4=CC(=O)C=C[C@]4(C)[C@@]3(F)[C@@H](O)C[C@]2(C)[C@@]1(OC(=O)c1ccc(S(C)(=O)=O)s1)C(=O)SCC#N [Example 23, 6α,9α-Difluoro-11β-hydroxy-16α-methyl-17α-(5-methylsulphonyl-thiophene-2-carbonyl)oxy-3-oxo-androsta-1,4-diene-17β-carbothioic Acid S-cyanomethyl Ester] | > 100 nM | < 35% | – |
| C[C@@H]1C[C@H]2[C@@H]3C[C@H](F)C4=CC(=O)C=C[C@]4(C)[C@@]3(F)[C@@H](O)C[C@]2(C)[C@@]1(OC(=O)c1ccc(C(F)(F)F)o1)C(=O)SCC#N [Example 24, 6α,9α-Difluoro-11β-hydroxy-16α-methyl-3-oxo-17α-(5-trifluoromethyl-furan-2-carbonyl)oxy-androsta-1,4-diene-17β-carbothioic Acid S-cyanomethyl Ester] | > 100 nM | < 35% | – |
| C[C@@H]1C[C@H]2[C@@H]3C[C@H](F)C4=CC(=O)C=C[C@]4(C)[C@@]3(F)[C@@H](O)C[C@]2(C)[C@@]1(OC(=O)c1cccc(SC(F)F)c1)C(=O)SCC#N [Example 25, 6α,9α-Difluoro-17α-(3-(difluoromethylthio)benzoyl)oxy-11β-hydroxy-16α-methyl-3-oxo-androsta-1,4-diene-17β-carbothioic Acid S-cyanomethyl Ester] | > 100 nM | < 35% | – |
